In patent publication US20240058392A1, “COMPOSITION COMPRISING SEA CUCUMBER GENITAL GLAND EXTRACT, COMPOUND DERIVED FROM SEA CUCUMBER OVARY EXTRACT, AND USE THEREOF” (BIOINFORMATICS & MOLECULAR DESIGN RESEARCH CENTER, priority 2020, published 2024):
Where two headings read alike, the source gives them in different places.

Legend:
[1] = system: FAS, PPARγ, C/EBPα, and FABP4; assay: Expression of adipogenesis-related proteins in 3T3-L1 cells treated with single compounds; assay type: cell-based
Protocol: In order to investigate the effect on expression of the adipocytes differentiation-related proteins by the sea cucumber extract, expression of the related proteins was confirmed through western blot. The differentiation-completed 3T3-L1 cells were washed with PBS, and then lysis was conducted with RIPA buffer, and then the proteins were separated by molecular weight through SDS-PAGE. After that, it was transferred to a PVDF membrane and it was blocked using 5% skim milk for 30 minutes. Then, it was reacted with a primary antibody, and then a secondary antibody was attached to confirm protein expression using an ECL solution.
In order to figure out the mechanism of the fat accumulation inhibitory efficacy of the single compound examined above, the degree of expression of proteins of FAS, PPARγ, C/EBPα, and FABP4, which were adipogenesis-related proteins was confirmed.

[2] = system: 3T3-L1 cells; assay: Glucose Uptake-Glo Assay, saponin compounds; assay type: cell-based; conditions: Mus musculus, read-out: Fold Relative to Control (glucose uptake)
Protocol: The 3T3-L1 cells were cultured in a high glucose DMEM medium in which 10% Calf serum and penicillin-streptomycin were added, and subcultured per 2-3 days. […] After 2 days, it was replaced with a medium containing insulin, and the medium was replaced again per 2 days to induce differentiation.
For the differentiation-completed 3T3-L1 cells, starvation was conducted for 16 hours, and then a sea cucumber-derived single compound was treated in a serum-free medium at a concentration of 2.5 ug/mL for 6 hours. The cultured supernatant was recovered and for the 3T3-L1 cells, using Glucose Uptake-Glo Assay Kit, the glucose transport activity degree was measured using a luminometer.

[3] = system: 3T3-L1 cells
[4] = system: 3T3-L1 cells; assay: Oil red O staining, single compounds of sea cucumber ovary extract; assay type: cell-based
Protocol: The differentiation-completed 3T3-L1 cells were fixed with 4% formaldehyde for 1 hour, and then fats were stained using a 0.5% Oil red O staining solution to confirm the degree of differentiation. For quantitative analysis of adipose differentiation, the dye stained in the cells was dissolved with 100% isopropyl alcohol and the absorbance was measured at 500 nm.
In order to investigate the effect on adipose differentiation of the 3T3-L1 cells of the single compound in the sea cucumber ovary extract, a total 8 of compounds were treated with a differentiation medium at a concentration of 2.5 and 5 μg/ml for 48 hours.

[5] = system: 3T3-L1 cells; assay: 3T3-L1 cell viability of single compounds separated from sea cucumber ovary extract; conditions: single compounds 2.5-5 μg/ml
[6] = differentiated 3T3-L1 cells, compound 2.5 ug/mL, 6 hours, serum-free medium
[7] = 1 μg/ml, compared to the control group

| SMILES | expression of adipogenesis-related proteins FAS, PPARγ, C/EBPα, and FABP4 [1] | fold induction at 2.5 µg/mL ([2]; 3T3-L1, 6 h) | fold induction at 2.5 µg/mL [2, 6] | also measured |
| --- | --- | --- | --- | --- |
| C=C(C)CCC[C@@]1(C)OC(=O)C23CC=C4C(CCC5C(C)(C)[C@@H](O[C@@H]6OCC(O[C@@H]7OC(CO)C(O)[C@H](O[C@@H]8OC(CO)C(O)[C@H](OC)C8O)C7O)[C@H](O)C6O[C@@H]6OC(C)C(O[C@@H]7OC(CO)C(O)[C@H](O[C@@H]8OC(CO)C(O)[C@H](OC)C8O)C7O)[C@H](O)C6O)CC[C@]45C)C2(C)CC(=O)C31 (stereo partly shown) [S8, holotoxin A] | a definite decrease in protein expression | 1.43 | – | – |
| C=C(C)CCC[C@@]1(C)OC(=O)C23CC=C4C(CCC5C(C)(C)[C@@H](O[C@@H]6OCC(O[C@@H]7OC(CO)C(O)[C@H](O[C@@H]8OC(CO)C(O)[C@H](O)C8O)C7O)[C@H](O)C6O[C@@H]6OC(CO)C(O[C@@H]7OCC(O)[C@H](O[C@@H]8OC(CO)C(O)[C@H](OC)C8O)C7O)[C@H](O)C6O)CC[C@]45C)C2(C)CC(=O)C31 (stereo partly shown) [S5, holotoxin D1] | expression of the related proteins was definitely reduced | 1.38 | – | change of 3T3-L1 cell viability [3]: a significant decrease was shown |
| C=C(C)CCC[C@](C)(O)[C@@H]1[C@@H]2CC3(C)C4=CCC5C(C)(C)[C@@H](O[C@@H]6OCC(O[C@@H]7OC(CO)C(O)[C@H](O)C7O)[C@H](O)C6O[C@@H]6OC(C)C(O[C@@H]7OC(CO)C(O)[C@H](O[C@@H]8OC(CO)C(O)[C@H](O)C8O)C7O)[C@H](O)C6O)CC[C@]5(C)C4CCC13C(=O)O2 (stereo partly shown) [S2] | – | – | 1.43 | expression of adipogenesis-related proteins FAS, PPARγ, C/EBPα, and FABP4 ([1]; compared to the control, concentration not given): a significant difference in protein expression was not shown |
| C=C(C)CCC[C@](C)(O)[C@@H]1[C@@H]2CC3(C)C4=CCC5C(C)(C)[C@@H](O[C@@H]6OCC(O[C@@H]7OC(CO)C(O)[C@H](O)C7O)[C@H](O)C6O[C@@H]6OC(C)C(O[C@@H]7OC(CO)C(O)[C@H](O[C@@H]8OC(CO)C(O)[C@H](OC)C8O)C7O)[C@H](O)C6O)CC[C@]5(C)C4CCC13C(=O)O2 (stereo partly shown) [S3] | – | – | 1.1 | inhibition at 1 µg/mL ([4]; Mus musculus, 3T3-L1, 1 μg/ml (lowest of the series from 1 μg/ml to 5 μg/ml), read-out: inhibition of fat accumulation): ~16%; inhibition at 5 µg/mL ([4]; Mus musculus, 3T3-L1, 5 μg/ml (highest of the series from 1 μg/ml to 5 μg/ml), read-out: inhibition of fat accumulation): ~80%; inhibition of fat accumulation ([4]; middle concentration of the series from 1 μg/ml to 5 μg/ml (2.5 μg/ml by the method)): ~40%; expression of adipogenesis-related proteins FAS, PPARγ, C/EBPα, and FABP4 [1, 7]: definitely reduced; expression of adipogenesis-related proteins FAS, PPARγ, C/EBPα, and FABP4 ([1]; from 2.5 μg/ml): expression of the related proteins was definitely reduced; change of 3T3-L1 cell viability [5]: a significant decrease was shown |
| C=C(C)CCC[C@@]1(C)OC(=O)C23CC=C4C(CCC5C(C)(C)[C@@H](O[C@@H]6OCC(O[C@@H]7OC(CO)C(O)[C@H](O[C@@H]8OC(CO)C(O)[C@H](O)C8O)C7O)[C@H](O)C6O[C@@H]6OC(C)C(O[C@@H]7OC(CO)C(O)[C@H](O[C@@H]8OC(CO)C(O)[C@H](OC)C8O)C7O)[C@H](O)C6O)CC[C@]45C)C2(C)CC(=O)C31 (stereo partly shown) [S6, holotoxin B] | a definite decrease in protein expression | 1.24 | – | – |
| C=C(C)CCC[C@@]1(C)OC(=O)C23CC=C4C(CCC5C(C)(C)[C@@H](O[C@@H]6OCC(O[C@@H]7OC(CO)C(O)[C@H](O[C@@H]8OC(CO)C(O)[C@H](OC)C8O)C7O)[C@H](O)C6O[C@@H]6OC(CO)C(O[C@@H]7OC(CO)C(O)[C@H](O[C@@H]8OC(CO)C(O)[C@H](O)C8O)C7O)[C@H](O)C6O)CC[C@]45C)C2(C)CC(=O)C31 (stereo partly shown) [S4] | – | – | 1.6 | expression of adipogenesis-related proteins FAS, PPARγ, C/EBPα, and FABP4 [1, 7]: definitely reduced; expression of adipogenesis-related proteins FAS, PPARγ, C/EBPα, and FABP4 ([1]; from 2.5 μg/ml): expression of the related proteins was definitely reduced; change of 3T3-L1 cell viability [5]: a significant decrease was shown |
| C=C(C)CCC[C@](C)(O)[C@@H]1[C@@H]2CC3(C)C4=CCC5C(C)(C)[C@@H](O[C@@H]6OCC(O[C@@H]7OC(CO)C(O)[C@H](O)C7O)[C@H](O)C6O[C@@H]6OC(C)C(O[C@@H]7OC(CO)C(O)[C@H](O)C7O)[C@H](O)C6O)CC[C@]5(C)C4CCC13C(=O)O2 (stereo partly shown) [S9] | – | – | 1.03 | – |
| C=C(C)CCC[C@](C)(O)[C@@H]1[C@@H]2CC3(C)C4=CCC5C(C)(C)[C@@H](O[C@@H]6OCC(O[C@@H]7OC(CO)C(O)[C@H](O)C7O)[C@H](O)C6O[C@@H]6OC(CO)C(O[C@@H]7OC(CO)C(O)[C@H](O[C@@H]8OC(CO)C(O)[C@H](O)C8O)C7O)[C@H](O)C6O)CC[C@]5(C)C4CCC13C(=O)O2 (stereo partly shown) [S1] | – | – | 1.25 | – |
